Structures are written as SMILES. “And” between values parts separate entries of the source, which are not always exact repeats. Identical values can stand only once. Like-named read-outs stand apart in the source and are kept apart here.

Test [1] has as its target T1, recombinant human DGAT-1 (Homo sapiens, UniProt O75907).
T1 construct: made in house; host or cells: sf9 insect cells (recombinant baculovirus); crude cell homogenate used
T1 sequence (O75907 1-488): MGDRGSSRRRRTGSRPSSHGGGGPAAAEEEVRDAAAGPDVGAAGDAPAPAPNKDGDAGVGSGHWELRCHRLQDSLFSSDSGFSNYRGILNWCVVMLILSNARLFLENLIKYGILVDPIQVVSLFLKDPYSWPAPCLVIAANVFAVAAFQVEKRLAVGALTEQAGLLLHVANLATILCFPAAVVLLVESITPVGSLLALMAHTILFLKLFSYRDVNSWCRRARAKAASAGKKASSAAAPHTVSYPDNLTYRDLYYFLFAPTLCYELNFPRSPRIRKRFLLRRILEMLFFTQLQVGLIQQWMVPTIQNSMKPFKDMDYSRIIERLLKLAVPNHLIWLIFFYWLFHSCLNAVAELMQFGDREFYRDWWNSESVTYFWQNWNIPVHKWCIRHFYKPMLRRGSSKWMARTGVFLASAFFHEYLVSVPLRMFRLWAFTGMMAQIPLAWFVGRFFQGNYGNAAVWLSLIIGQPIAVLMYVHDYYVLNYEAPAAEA
Nature of the test: DGAT-1 enzyme assay. The format is biochemical. Particulars: recombinant human DGAT-1 expressed in sf9 insect cells; geometric mean±standard error. The method, then:
DGAT-1 enzyme assay Inhibitors of DGAT-1 are identified with an in vitro enzymatic assay which uses recombinant human DGAT-1 expressed in sf9 insect cells as an enzyme source. DGAT-1 enzyme is produced by infecting cells with recombinant baculovirus containing a DGAT-1 expression vector. After 48 hr infection cells are harvested by centrifugation, resuspended in cold 20 mM NaCl, and disrupted with a Dounce homogenizer. Fifteen milliliters of 20 mM NaCl are added to a cell pellet for each liter of infected cell suspension. DNA in the homogenate is sheared by pulling the cell extract through a 25 gauge needle. DGAT-1 activity in the baculovirus infected cell homogenate is compared to homogenate from uninfected cells to assess background enzymatic activity associated with sf9 cells.
Assays are performed in 96 well plates using a modification of the assay described by Coleman (Methods in Enzymology 209. pp 98-102 (1992)). Briefly, compounds are tested in a 1:3 serial dilution scheme from 100 μM to 1.7 nM final concentration. The enzyme reaction mixture contains substrates 250 μM 1,2-sn-diacylglycerol (Avanti Polar Lipids), 5 μM ^14C oleoyl CoA, and 45 μM oleoyl CoA in an aqueous buffer containing 150 mM Hepes buffer pH7.4, 0.7% vol/vol Triton® X-100 and Complete™ protease inhibitors. […] One hundred microliters of scintillation cocktail is then added and, after 8 hr, plates are counted. […]

In test [2] the test system is Male Sprague-Dawley rats. Nature of the test: Oil bolus absorption model (plasma triglyceride after olive oil bolus). It counts as in vivo, rat. Particulars: for ED80: dose reducing increase in plasma triglyceride by 80%. The method, then: Male Sprague-Dawley rats (280-320 g, n=6 per test group) on regular chow are acclimated to the test vivarium for at least 1 week prior to compound evaluation. Prior to compound testing, rats are fasted for 16 hour. Compounds are administered via oral gavage in a vehicle of 10% ethanol/90% corn oil at a volume of 1 ml/kg. Four hours after compound administration, a 0.5 ml blood sample is collected via the tail vein. Immediately following the 4 hour blood collection, a 3.0 ml bolus of olive oil is administered by oral gavage. A final blood sample is collected from the tail vein 6 hours after compound administration. Plasma is prepared from blood samples by centrifugation and analyzed for both triglyceride content, using a Hitachi 912 clinical chemistry analyzer, and test compound levels. The effective dose that reduces the increase in plasma triglyceride by 50% (ED50) and 80% (ED80) is determined DGAT-1 inhibition is indicative of the ability of the test compound to inhibit the increase in plasma triglyceride that occurs between hours 4 and 6 of the study (between 14 and 16 hours in the modified model) in vehicle treated (control) animals. In a modification of the model, compound is administered 14 hours prior to the first blood sample collection and oil bolus administration. The final blood sample is collected at 16 hours after dosing. In this longer duration version of the model, the 10% ethanol/90% corn oil vehicle is administered, without compound, at 10 hours after compound dosing to be consistent with the shorter duration version of the model. Compounds are tested substantially by the oil bolus absorption rat model method described herein.
For the compound N-[1-[[(4R)-5,6-dihydro-4H-imidazo[1,2-a][1]benzazepin-4-yl]carbamoyl]cyclopropyl]-4-ethoxy-benzamide (Examples 1, 3, 57), the three experiments used doses of 1, 3, 10 and 30 mg/kg. For the compound 4-Chloro-N-[1-[[(4R)-5,6-dihydro-4H-imidazo[1,2-a][1]benzazepin-4-yl]carbamoyl]cyclopropyl]benzamide (Examples 2, 21, 58), experiment 1 used doses of 0.3, 1, 3, 10 and 30 mg/kg, and for experiments 2 and 3, the doses used are 0.1, 0.3, 1, 3 and 10 mg/kg.
The data are analyzed using meta-analysis. The overall ED50 (ED80) is estimated as the weighted average of ED50 (ED80) from individual studies, with the weights being the inverse of variance of ED50 (ED80) estimates. The homogeneity Q-test is performed. If the test is significant at 0.10 level, a mixed-effect model is used to include both inter-study and intra-study variability. The weights are adjusted to the inverse of the sum of inter-study variance and the intra-study variance of ED50 (ED80) from individual studies. The inter-study variance is estimated by the Paule-Mandel estimator. (References: Sutton, A. J., Jones, D. R., Abrams, K. R., Sheldon, T. A., and Song, F., Methods for Meta-analysis in Medical Research London, John Wiley, ISBN 0-471-49066-0 (2000). Dersimonian R., and Kacker, R., Random-effects model for meta-analysis of clinical trials: An update, Contemporary Clinical Trials 28 p 105-114 (2007).

Take `O=C(NC1(C(=O)N[C@@H]2CCc3ccccc3-n3ccnc32)CC1)c1ccc(Cl)cc1` [Example 2, 4-Chloro-N-[1-[[(4R)-5,6-dihydro-4H-imidazo[1,2-a][1]benzazepin-4-yl]carbamoyl]cyclopropyl]benzamide]: in test [1], the IC50 is 89 ± 0.98 nM. The ED50 was 0.26 mg/kg and 0.73 mg/kg and 0.57 mg/kg in test [2] (6 hour oil bolus study, rat, oral gavage, dose reducing increase in plasma triglyceride by 50%, individual experiments); 0.32 mg/kg in test [2] (Rattus norvegicus, 6 h, 6 hour oil bolus study, weighted average of experiments, read-out: ED50 Mean (meta-analysis)). For the same compound, the ED80 in test [2] (6 hour oil bolus study, rat, oral gavage, individual experiments) is 0.45 mg/kg and 2.22 mg/kg. Besides, the “ED80 Mean (meta-analysis)” value in test [2] (6 hour oil bolus study, weighted average of experiments) is 0.54 mg/kg.

With `CCOc1ccc(C(=O)NC2(C(=O)N[C@@H]3CCc4ccccc4-n4ccnc43)CC2)cc1` [Example 1, N-[1-[[(4R)-5,6-dihydro-4H-imidazo[1,2-a][1]benzazepin-4-yl]carbamoyl]cyclopropyl]-4-ethoxy-benzamide], in test [1], the IC50 came out at 134 ± 8 nM. Also, the ED50 is 1.71 mg/kg and 12.37 mg/kg and 2.92 mg/kg in test [2] (16 hour oil bolus study, rat, oral gavage, dose reducing increase in plasma triglyceride by 50%, individual experiments); 5.3 mg/kg in test [2] (Rattus norvegicus, 16 h, 16 hour oil bolus study, weighted average of three experiments, read-out: ED50 Mean (meta-analysis)). The ED80 in test [2] (16 hour oil bolus study, rat, oral gavage, individual experiments) was 5.52 mg/kg and 19.61 mg/kg and 7.64 mg/kg. The “ED80 Mean (meta-analysis)” value in test [2] (16 hour oil bolus study, weighted average of three experiments) was determined as 7.34 mg/kg.

As usually defined, the IC50 is the concentration needed to halve the response being measured. The ED50 is the dose at which the effect has come halfway, by size or by number of responders.
